{"source": "patent US12485107B2", "about": "“Methods for the prevention or treatment of cytokine storm” (Beth Israel Deaconess Medical Center, Inc., priority 2019, dated 2025)", "key": {"[1]": {"tested_on": "primary murine peritoneal macrophages", "assay": "Cytokine array/ELISA of conditioned medium of primary murine peritoneal macrophages stimulated with paclitaxel-generated ID8 debris", "type": "cell-based", "settings": "PTUPB 5 or 10 μM, 2 hours", "procedure": "Macrophages were treated with vehicle or PTUPB (1-10 μM) in Dulbecco's phosphate-buffered saline containing calcium and magnesium (PBS^+/+) (Lonza, Basel, Switzerland) and incubated for 2 hours at 37° C. Carboplatin- or paclitaxel-generated ID8 or OVCAR5 debris was added to murine or human macrophages, respectively, at a 1:4 (macrophage:dead cell body) ratio and incubated for 1 hour at 37° C. Next, plates were aspirated, macrophages were re-fed with serum-free medium, and incubated overnight at 37° C. […]\n(§1) In vivo cytokines (serum or ascites) or cytokines in conditioned medium of macrophages treated with PTUPB and exposed to paclitaxel- or carboplatin-generated debris, were assessed according to the protocols provided by Proteome Profiler Mouse Cytokine Array Kit Panel A, Proteome Profiler Mouse Angiogenesis Array Kit, or Proteome Profiler Human Cytokine Array Kit Panel A (R&D Systems, Inc., Minneapolis, MN). […]\nFor quantitation of pro-inflammatory cytokines, serum or conditioned medium from macrophages treated with PTUPB and stimulated with paclitaxel-generated ID8 debris or from paclitaxel-generated ID8 debris alone without macrophages was used according to the protocols provided in each ELISA kit (R&D Systems, Minneapolis, MN). […]"}, "[2]": {"tested_on": "RAW264.7 murine macrophages", "assay": "Cytokine arrays of RAW264.7 macrophages stimulated with gemcitabine-generated PancOH7 debris", "type": "cell-based", "settings": "5 μM, 2 hours pre-treatment", "procedure": "(A) Inflammatory and (B) angiogenic cytokine array of RAW264.7 murine macrophage conditioned media co-cultured with chemotherapy (gemcitabine)-generated murine pancreatic (PancOH7) tumor cell debris and pre-treated with vehicle or PTUPB (5 μM, 2 hours).\nInflammatory (FIG. 15A) and angiogenic (FIG. 15B) cytokine arrays of conditioned media from RAW264.7 macrophages treated with vehicle or PTUPB (5 uM) for 2 hours stimulated with gemcitabine-generated PancOH7 debris are shown in FIGS. 15A and 15B. “Cytokine storm” released by debris-stimulated macrophages is prevented by the dual COX-2/sEH inhibitor PTUPB."}, "[3]": {"tested_on": "RAW 264.7 murine macrophages", "assay": "Inflammatory cytokine array of RAW264.7 macrophages stimulated with ethanol-generated MS-1 endothelial cell debris", "type": "cell-based", "settings": "5 μM (combination 2.5 μM each), 2 hours pre-treatment"}, "[4]": {"tested_on": "intraperitoneal ovarian tumors (ID8)", "assay": "In vivo cytokines (serum, ascites) in mice bearing intraperitoneal ID8 ovarian tumors", "procedure": "In vivo cytokines (serum or ascites) or cytokines in conditioned medium of macrophages treated with PTUPB and exposed to paclitaxel- or carboplatin-generated debris, were assessed according to the protocols provided by Proteome Profiler Mouse Cytokine Array Kit Panel A, Proteome Profiler Mouse Angiogenesis Array Kit, or Proteome Profiler Human Cytokine Array Kit Panel A (R&D Systems, Inc., Minneapolis, MN). Array control allows for comparison between membranes. For in vivo analysis, n=2 mice/group (serum); n=1 mouse/group (ascites).\n(§2) For quantitation of pro-inflammatory cytokines, serum or conditioned medium from macrophages treated with PTUPB and stimulated with paclitaxel-generated ID8 debris or from paclitaxel-generated ID8 debris alone without macrophages was used according to the protocols provided in each ELISA kit (R&D Systems, Minneapolis, MN).\nAll animal studies were reviewed and approved by the Animal Care and Use Committee of Beth Israel Deaconess Medical Center, Boston, MA Mice were housed at a maximum of 5 animals per cage in a pathogen-free facility with unlimited access to sterile water and chow. Daily welfare evaluations and animal sacrifices were carried out according to the Committee guidelines. For murine injections, chemotherapy-generated murine (ID8) or human (OVCAR5) ovarian tumor cell debris was combined with ID8 or OVCAR5 living cells at equal volumes in PBS. Six-week-old female C57BL/6 (The Jackson Laboratory, Bar Harbor, ME) or SCID mice (Charles River, Cambridge, MA) were injected subcutaneously or intraperitoneally with 100 μL/mouse of ID8 or OVCAR5 cells, respectively. For orthotopic injections, 6-week-old C57BL/6 female mice were injected with 20 μL/mouse of matrigel (Becton Dickinson and Company, Franklin Lakes, NJ) mixed with paclitaxel-generated ID8 debris and/or ID8 living cells at a 1:1 (matrigel:cells) ratio directly into the right ovarian bursa. Systemic treatment with PTUPB (30 mg/kg/day) or control was administered via mini-osmotic pumps (Alzet Inc., Cupertino, CA) implanted into the peritoneum of the mice 4 weeks post-injection. […]"}, "[5]": {"tested_on": "RAW264.7 murine macrophages", "assay": "Cytokine array/ELISA of conditioned medium of RAW264.7 macrophages stimulated with chemotherapy-generated ID8 debris", "type": "cell-based", "procedure": "Macrophages were treated with vehicle or PTUPB (1-10 μM) in Dulbecco's phosphate-buffered saline containing calcium and magnesium (PBS^+/+) (Lonza, Basel, Switzerland) and incubated for 2 hours at 37° C. Carboplatin- or paclitaxel-generated ID8 or OVCAR5 debris was added to murine or human macrophages, respectively, at a 1:4 (macrophage:dead cell body) ratio and incubated for 1 hour at 37° C. Next, plates were aspirated, macrophages were re-fed with serum-free medium, and incubated overnight at 37° C. The conditioned medium was collected the next day, centrifuged at 1100 rpm for 5 minutes to remove particulates, and stored at −20° C. until further analysis via cytokine array, ELISA, or LC-MS/MS. Collection of RAW264.7 murine macrophage conditioned medium was repeated using debris from three distinct collections for a total of three separate experiments. Collection of human monocyte-derived macrophage conditioned medium was repeated using peripheral blood monocytes from three different human donors and debris from three distinct collections for a total of three separate experiments. Collection of primary murine peritoneal macrophages was repeated using macrophages pooled from 5-10 C57BL/6 female mice and debris from two distinct collections for a total of two separate experiments.\nas §1, with “MN). Array control allows for comparison between membranes.” for “MN).”\nas §2"}, "[6]": {"tested_on": "RAW264.7 murine macrophages", "assay": "Inflammatory cytokine array of RAW264.7 macrophages stimulated with ethanol-generated Hepa 1-6 debris", "type": "cell-based", "settings": "5 μM (combination 5 μM each), 2 hours pre-treatment", "procedure": "Inflammatory cytokine array of RAW264.7 murine macrophage conditioned media co-cultured with ethanol-generated murine liver (Hepa 1-6) tumor cell debris and pre-treated for 2 hours with vehicle, PTUPB (5 μM), Ome-21i (5 μM), or Ome-21i+Celecoxib (5 μM each).\nAn inflammatory cytokine array of conditioned media from RAW264.7 macrophages treated with vehicle, PTUPB (5 μM), Ome-21i (5 μM), or Ome-21i (5 μM) and Celecoxib (5 μM) for 2 hours stimulated with ethanol-generated Hepa 1-6 debris is shown in FIG. 17. “Cytokine storm” released by debris-stimulated macrophages is prevented by the dual COX-2/sEH inhibitor PTUPB or sEH inhibitor Ome-21i and COX-2 inhibitor celecoxib."}, "[7]": {"tested_on": "debris-stimulated intraperitoneal ovarian tumors (ID8)", "assay": "Debris-stimulated intraperitoneal ID8 ovarian tumor model, survival", "type": "in vivo, mice", "procedure": "All animal studies were reviewed and approved by the Animal Care and Use Committee of Beth Israel Deaconess Medical Center, Boston, MA Mice were housed at a maximum of 5 animals per cage in a pathogen-free facility with unlimited access to sterile water and chow. Daily welfare evaluations and animal sacrifices were carried out according to the Committee guidelines. For murine injections, chemotherapy-generated murine (ID8) or human (OVCAR5) ovarian tumor cell debris was combined with ID8 or OVCAR5 living cells at equal volumes in PBS. Six-week-old female C57BL/6 (The Jackson Laboratory, Bar Harbor, ME) or SCID mice (Charles River, Cambridge, MA) were injected subcutaneously or intraperitoneally with 100 μL/mouse of ID8 or OVCAR5 cells, respectively. For orthotopic injections, 6-week-old C57BL/6 female mice were injected with 20 μL/mouse of matrigel (Becton Dickinson and Company, Franklin Lakes, NJ) mixed with paclitaxel-generated ID8 debris and/or ID8 living cells at a 1:1 (matrigel:cells) ratio directly into the right ovarian bursa. Systemic treatment with PTUPB (30 mg/kg/day) or control was administered via mini-osmotic pumps (Alzet Inc., Cupertino, CA) implanted into the peritoneum of the mice 4 weeks post-injection. Treatment ended 28 days after implantation of the pumps. Systemic chemotherapy with carboplatin (10 mg/kg q 3 days) or control that were initiated on the day of tumor cell injection.\nStatistical analyses for in vitro studies were performed using Student's two-tailed unpaired t-test. Data are represented as mean±S.E.M. with p-values less than 0.05 considered statistically significant. For in vivo studies, the Kaplan-Meier product-limit method and log-rank testing were used to evaluate survival differences over time after the day of tumor cell injection between mice co-injected with tumor cell debris and living cells vs. living cells alone. Data are represented as percent survival with p-values less than 0.01 considered statistically significant."}}, "note": "“Also recorded” adds a separate entry of the source."}
{"smiles": "NS(=O)(=O)c1ccc(-n2nc(CCCNC(=O)Nc3ccc(C(F)(F)F)cc3)cc2-c2ccccc2)cc1", "note": "[PTUPB, 4-(5-phenyl-3-{3-[3-(4-trifluoromethyl-phenyl)-ureido]propyl}-pyrazol-1-yl) benzenesulfonamide]", "values": [{"measurement": "debris-stimulated cytokine surge by primary murine peritoneal macrophages", "setting": "[1]", "result": "inhibited a debris-stimulated cytokine surge"}, {"measurement": "cytokine storm (inflammatory and angiogenic arrays) released by macrophages stimulated with gemcitabine-generated PancOH7 debris", "setting": "[2]", "result": "prevented"}, {"measurement": "cytokine storm by ethanol-generated endothelial cell (MS-1) debris", "setting": "[3]", "result": "inhibited"}, {"measurement": "serum levels of CXCL13/BCA-1 and SDF-1/CXCL12", "setting": "[4]; ID8-bearing mice administered systemic chemotherapy (carboplatin), PTUPB-treated vs control", "result": "reduced serum levels"}, {"measurement": "ascites levels of PIGF-2, PTX-3, MMP9, CCL2/MCP-1, fractalkine/CX3CL1, angiopoietin-1", "setting": "[4]; intraperitoneal ID8 tumors, day 60 post-injection, vs control", "result": "decreased levels"}, {"measurement": "pro-angiogenic factors serpin E1/PAI-1 and IGFBP1 in serum", "setting": "[4]; mice i.p. injected with ID8 (1×10^6 living cells), day 60 post-injection, vs control", "result": "inhibited pro-angiogenic factors"}, {"measurement": "debris-stimulated macrophage release of IL-1ra", "setting": "[5]; FIGS. 4A, 4C, 5D, ID8 debris", "result": "suppressed debris-stimulated macrophage release of IL-1ra"}, {"measurement": "pro-inflammatory cytokine surge (TNFα, MIP-2/CXCL2, MIP-1β/CCL4, CCL2/MCP-1, sICAM-1/CD54, G-CSF) by debris-stimulated macrophages", "setting": "[5]; PTUPB 5 μM, 2 hours, paclitaxel- or carboplatin-generated ID8 debris", "result": "prevented the cytokine surge"}, {"measurement": "angiogenic cytokine surge (serpin E1/PAI-1, osteopontin, MMP9, CCL2/MCP-1) by debris-stimulated macrophages", "setting": "[5]; PTUPB 2.5 or 5 μM, 2 hours, paclitaxel- or carboplatin-generated ID8 debris", "result": "suppressed an angiogenic cytokine surge"}, {"measurement": "cytokine storm released by macrophages stimulated with ethanol-generated Hepa 1-6 debris", "setting": "[6]", "result": "able to inhibit; also recorded: prevented"}, {"measurement": "sustained survival", "setting": "[7]; PTUPB 30 mg/kg/day by mini-osmotic pump from 4 weeks post-injection, paclitaxel- or carboplatin-generated ID8 debris + ID8 living cells i.p.", "result": "over 120 days post-injection"}, {"measurement": "survival compared to control (Kaplan-Meier, log-rank), paclitaxel-generated debris i.p. model", "setting": "[7]; PTUPB 30 mg/kg/day, log-rank test=9.70, p=0.0018", "result": "significantly prolonged survival"}, {"measurement": "survival compared to control (Kaplan-Meier, log-rank), carboplatin-generated debris i.p. model", "setting": "[7]; PTUPB 30 mg/kg/day, log-rank test=9.85, p=0.0017", "result": "significantly prolonged survival"}]}
